Marks after values point to notes of the source that are not given here.
Key:
Format in all cases: in vivo, broiler chickens (Ross 308)
[1] = tested on: male broilers subjected to chronic cyclic heat stress; assay: Body weight and rectal temperature of birds sampled at d-23, d-25 and d-39
Protocol: (§1) Sampling of one bird per pen (with weight close to average weight of the pen) on d-23, d-25 and on d-39 (on d-25 and d-39, sampling starts after >3 h of heat stress that day; 108 birds in total) • malondialdehyde, HSP70 (Chicken Heat Shock Protein 70, Hsp-70 ELISA Kit) Cusabio Code CSB-E11196Ch), HSP90 (Chicken Heat Shock Protein 90, HSP-90 ELISA Kit; Cusabio Code CSB-E12873C), GPx, SOD in plasma; GSH/GSSG in erythrocytes; and T3, T4 and nitric oxide in serum • Breast muscle and liver: malondialdehyde, AOX (GPx, SOD), GSH/GSSG
(§2) For physiological measurements, time of sampling (representing the number of minutes between the beginning of heat stress and the precise moment of sampling of the bird that day), if appropriate, was included in the model as a covariable if significant as well. Orthogonal contrasts were applied to test for linear and quadratic effects upon incremental levels of DMS supplementation in the diet. Means are given as estimated marginal means (least square means). Means were separated using the Tukey post-hoc test. Differences were considered significant when p<0.05 and as a trend for significance when p<0.1.
At d-23, d-25 and d39, one bird per pen (with weight close to average weight of the pen) was sampled. On d-25 and d-39, sampling started after >3 h of heat stress that day. Thus, in total 108 birds were sampled, and various endpoints were determined in several tissues. To recall, finisher period started on d-21, while the heat stress protocol was implemented from d-24 onwards. It means that d-23 was the last day prior to heat stress and d-25 the second day whereby birds were subjected to high temperatures. Body weights on d-23 and d-25 (Table 7) were naturally higher than those reported on d-21 (Table 3), but not affected by treatment. Body weights at d-39 for sampled birds are very close to body weights for d-39 shown in Table 3, which confirms that birds with weight close to average weight of the pen were selected. Again, this was not affected by supplementation with DMS. Rectal temperature of sampled birds on d-23 represents values for thermo-neutral conditions, and thus ranged between 41.1 and 41.3° C. without treatment differences (FIG. 15). However, on d-25 rectal temperatures were largely elevated and obviously affected by diet (P<0.05). […] Nonetheless, observations are in line with findings on d-38 (Table 4).

[2] = tested on: male broilers subjected to chronic cyclic heat stress; assay: Parameters in liver of birds sampled at d-23, d-25 and d-39
Protocol: as §1, §2

[3] = tested on: male broilers subjected to chronic cyclic heat stress; assay: Parameters in breast muscle of birds sampled at d-23, d-25 and d-39
Protocol: as §1, §2

[4] = 0.2% DMS in diet (T3), sampled birds d-25

CS(C)(=O)=O [DMS, dimethyl sulfone] showed a Body weight ([1]; 0.1% DMS in diet (T2), sampled birds d-23) of 1361 g, a Rectal temperature ([1]; 0.1% DMS in diet (T2), sampled birds d-23 (prior to heat stress)) of 41.3 °C and a Body weight ([1]; 0.1% DMS in diet (T2), sampled birds d-25) of 1544 g. For the same molecule, the Rectal temperature ([1]; 0.1% DMS in diet (T2), sampled birds d-25, during heat stress) was 42.5^b ° C, the Body weight ([1]; 0.1% DMS in diet (T2), sampled birds d-39) was 3097 g and the Rectal temperature ([1]; 0.1% DMS in diet (T2), sampled birds d-39, during heat stress) was 42.6 °C. The Body weight ([1]; 0.2% DMS in diet (T3), sampled birds d-23) was 1352 g, the Rectal temperature ([1]; 0.2% DMS in diet (T3), sampled birds d-23 (prior to heat stress)) was 41.1 °C and the Body weight [1, 4] was 1536 g. For the same molecule, the “Rectal temperature lower than control” value [1, 4] was 0.5 °C, the Rectal temperature ([1]; 0.2% DMS in diet (T3), sampled birds d-25, during heat stress) was 42.3^b ° C and the Body weight ([1]; 0.2% DMS in diet (T3), sampled birds d-39) was 3068 g. For the same molecule, the Rectal temperature ([1]; 0.2% DMS in diet (T3), sampled birds d-39, during heat stress) was 42.3 °C, the GSSG/GSH ([2]; 0.1% DMS in diet (T2), d-23) was 0.016 and the “Glutathione (GSH)” value ([2]; 0.1% DMS in diet (T2), d-23) was 4.69 µmol/g. The Glutathione peroxidase ([2]; 0.1% DMS in diet (T2), d-23) was 17.0 U/g, the Malondialdehyde ([2]; 0.1% DMS in diet (T2), d-23) was 43.9 nmol/g and the “Oxidized glutathione (GSSG)” value ([2]; 0.1% DMS in diet (T2), d-23) was 0.077 µmol/g. The Super oxide dismutase ([2]; 0.1% DMS in diet (T2), d-23) was 332 U/g, the GSSG/GSH ([2]; 0.1% DMS in diet (T2), d-25) was 0.017 and the “Glutathione (GSH)” value ([2]; 0.1% DMS in diet (T2), d-25) was 4.26 µmol/g. The Glutathione peroxidase ([2]; 0.1% DMS in diet (T2), d-25) was 17.8 U/g, the Malondialdehyde ([2]; 0.1% DMS in diet (T2), d-25) was 48.6 nmol/g and the “Oxidized glutathione (GSSG)” value ([2]; 0.1% DMS in diet (T2), d-25) was 0.070 µmol/g. The Super oxide dismutase ([2]; 0.1% DMS in diet (T2), d-25) was 292 U/g, the GSSG/GSH ([2]; 0.1% DMS in diet (T2), d-39) was 0.027 and the “Glutathione (GSH)” value ([2]; 0.1% DMS in diet (T2), d-39) was 3.74 µmol/g. For the same molecule, the Glutathione peroxidase ([2]; 0.1% DMS in diet (T2), d-39) was 17.5 U/g, the Malondialdehyde ([2]; 0.1% DMS in diet (T2), d-39) was 46.4 nmol/g and the “Oxidized glutathione (GSSG)” value ([2]; 0.1% DMS in diet (T2), d-39) was 0.093 µmol/g. The Super oxide dismutase ([2]; 0.1% DMS in diet (T2), d-39) was 356 U/g, the GSSG/GSH ([2]; 0.2% DMS in diet (T3), d-23) was 0.015 and the “Glutathione (GSH)” value ([2]; 0.2% DMS in diet (T3), d-23) was 5.04 µmol/g. The Glutathione peroxidase ([2]; 0.2% DMS in diet (T3), d-23) was 16.9 U/g, the Malondialdehyde ([2]; 0.2% DMS in diet (T3), d-23) was 44.6 nmol/g and the “Oxidized glutathione (GSSG)” value ([2]; 0.2% DMS in diet (T3), d-23) was 0.076 µmol/g. The Super oxide dismutase ([2]; 0.2% DMS in diet (T3), d-23) was 317 U/g, the GSSG/GSH ([2]; 0.2% DMS in diet (T3), d-25) was 0.017 and the “Glutathione (GSH)” value ([2]; 0.2% DMS in diet (T3), d-25) was 4.14 µmol/g. The Glutathione peroxidase ([2]; 0.2% DMS in diet (T3), d-25) was 17.9 U/g, the Malondialdehyde ([2]; 0.2% DMS in diet (T3), d-25) was 49.1 nmol/g and the “Oxidized glutathione (GSSG)” value ([2]; 0.2% DMS in diet (T3), d-25) was 0.069 µmol/g. For the same molecule, the Super oxide dismutase ([2]; 0.2% DMS in diet (T3), d-25) was 289 U/g, the GSSG/GSH ([2]; 0.2% DMS in diet (T3), d-39) was 0.025 and the “Glutathione (GSH)” value ([2]; 0.2% DMS in diet (T3), d-39) was 3.94 µmol/g. For the same molecule, the Glutathione peroxidase ([2]; 0.2% DMS in diet (T3), d-39) was 18.6 U/g, the Malondialdehyde ([2]; 0.2% DMS in diet (T3), d-39) was 48 nmol/g and the “Oxidized glutathione (GSSG)” value ([2]; 0.2% DMS in diet (T3), d-39) was 0.097 µmol/g. For the same molecule, the Super oxide dismutase ([2]; 0.2% DMS in diet (T3), d-39) was 346 U/g, the “Glutathione (GSH)” value ([3]; 0.1% DMS in diet (T2), d-23) was 1.00 µmol/g and the Glutathione peroxidase ([3]; 0.1% DMS in diet (T2), d-23) was 0.39 U/g. For the same molecule, the Malondialdehyde ([3]; 0.1% DMS in diet (T2), d-23) was 4.72 nmol/g, the Super oxide dismutase ([3]; 0.1% DMS in diet (T2), d-23) was 29.7 U/g and the “Glutathione (GSH)” value ([3]; 0.1% DMS in diet (T2), d-25) was 1.30^ab μmol/g. It also gave a Glutathione peroxidase ([3]; 0.1% DMS in diet (T2), d-25) of 0.42 U/g, a Malondialdehyde ([3]; 0.1% DMS in diet (T2), d-25) of 4.6 nmol/g and a Super oxide dismutase ([3]; 0.1% DMS in diet (T2), d-25) of 27.3 U/g. The “Glutathione (GSH)” value ([3]; 0.1% DMS in diet (T2), d-39) was 1.46 µmol/g, the Glutathione peroxidase ([3]; 0.1% DMS in diet (T2), d-39) was 0.46 U/g and the Malondialdehyde ([3]; 0.1% DMS in diet (T2), d-39) was 5.23 nmol/g. For the same molecule, the Super oxide dismutase ([3]; 0.1% DMS in diet (T2), d-39) was 27.4 U/g, the “Glutathione (GSH)” value ([3]; 0.2% DMS in diet (T3), d-23) was 1.10 µmol/g and the Glutathione peroxidase ([3]; 0.2% DMS in diet (T3), d-23) was 0.38 U/g. For the same molecule, the Malondialdehyde ([3]; 0.2% DMS in diet (T3), d-23) was 4.5 nmol/g, the Super oxide dismutase ([3]; 0.2% DMS in diet (T3), d-23) was 32.6 U/g and the “Glutathione (GSH)” value ([3]; 0.2% DMS in diet (T3), d-25) was 1.39^a μmol/g. For the same molecule, the Glutathione peroxidase ([3]; 0.2% DMS in diet (T3), d-25) was 0.44 U/g, the Malondialdehyde ([3]; 0.2% DMS in diet (T3), d-25) was 4.5 nmol/g and the Super oxide dismutase ([3]; 0.2% DMS in diet (T3), d-25) was 28.1 U/g. The “Glutathione (GSH)” value ([3]; 0.2% DMS in diet (T3), d-39) was 1.56 µmol/g, the Glutathione peroxidase ([3]; 0.2% DMS in diet (T3), d-39) was 0.50 U/g and the Malondialdehyde ([3]; 0.2% DMS in diet (T3), d-39) was 5.57 nmol/g. It also gave a Super oxide dismutase ([3]; 0.2% DMS in diet (T3), d-39) of 26.2 U/g.
